Experimental findings from patent US4025630A, “Anesthesia methods using benzopyrans and esters thereof as pre-anesthesia medication” (Abbott Laboratories, priority 1974, dated 1977) are described below.

Structures can show the parent of a compound that is named as a salt.

The test system of series [1] is mice. Kind of series: Activity of benzopyrans as adjuvants to halothane anesthesia (Carson-Domino method). It is filed as in vivo. More on the design: key: +: statistically significant increase; -: statistically significant decrease; NE: no effect; (): large but non-statistically significant change. The source says:
(§1) A modification of the method of Carson and Domino (Anesthesiology, 23:187-192, 1962) was used.
(§2) Groups of 10 female Swiss-Webster (A. R. Schmidt, Madison, Wisconsin) mice weighing between 16-24 grams were pre-treated with various doses or at various times with drug either oral or by intravenous injection of the tail veins. The mice were placed into 2 liter beakers (5 animals per beaker). The tops of the beakers were covered with Parafilm to which a gauze sponge had been attached. 0.1 cc of Penthrane or halothrane was injected through the Parafilm into the sponge at 5 minute intervals. […] These parameters were measured by the use of a stop watch. Statistical analysis (one-way analysis of variance) was done on the computer.
A number of benzopyran derivatives were screened in mice as adjuvants to the anesthetic actions of halothane. The Carson-Domino method (Anesthesiology 23:187, 1962) was used to measure anesthetic induction times and duration of anesthesia as evidenced by loss of righting reflex, as well as changes in the lethality of halothane.
Screening doses of 5 mg./kg. intravenously or 20 mg./kg. orally were used.

Series [2] is described as follows: Solubility in water of the product. The conditions noted are these: powder.
The test system of series [3] is mice. Kind of series: Determination of the Anesthetic ED50 and the LD50 of Pentothal. It is filed as in vivo, female Swiss-Webster mice. As for the experimental part:
(§3) An intravenous potency/lethality ratio for Pentothal was established in mice as follows
(§4) Determination of the Anesthetic ED50 and the LD50 of Pentothal
(§5) Groups of 10 female Swiss-Webster (A. R. Schmidt, Madison, Wisconsin) mice weighing between 16-25 grams were used for all studies. Intravenous injections were made into the tail veins. The drugs were prepared daily in Sterile Water (Abbott List No. 1590). […] LD50 's ED50 's, and their associated conficence limits were calculated by the method of Litchfield and Wilcoxon (1949).

Test in series [4]: as above
The format is in vivo, female Swiss-Webster mice. The settings on record: mouse, in vivo; intravenous, mice, observed one week; read-out: LD50 (95% C.L.). As for the experimental part: as §3, §4, §5

Series [5] deals with mice. Kind of series: Interaction of Benzopyranopyridines with Pentothal (loss of righting reflex, sleep). The format is in vivo, female Swiss-Webster mice. The protocol: as §5
Interaction of Benzopyranopyridines with Pentothal
1. Animals pretreated with SP-106, 1 mg./kg. intravenously 0-30 minutes prior to Pentothal, 10 mg./kg. […] Longer pretreatment times (60 to 120 minutes) had no effect.

The subject of series [6] is mice. Kind of series: Interaction of Benzopyranopyridines with Fluothane (halothane) (modified Carson and Domino method). The conditions noted are these: 1 to 5 mg./kg. 15 minutes prior to halothane vapors. It is filed as in vivo, female Swiss-Webster mice.
Source text: as §1, §2

Series [7] relates to mice. Kind of series: Interaction of Benzopyranopyridines with Penthrane (modified Carson and Domino method). It is filed as in vivo, female Swiss-Webster mice. The settings on record: 1 to 5 mg./kg. 15 minutes prior to Penthrane vapors.
Source text: as §1, §2

The mark [8] stands for this setting: 20 mg/kg p.o., pretreatment time 1 hr.
The mark [9] stands for this setting: 20 mg/kg p.o., pretreatment time 2 hr.
The mark [10] stands for this setting: 20 mg/kg p.o., pretreatment time 3 hr.
[11] abbreviates: 20 mg/kg p.o., pretreatment time 4 hr.
[12] abbreviates: 5 mg/kg i.v., pretreatment time 15 minutes.

With `C#CCN1CCC2=C(C1)c1c(O)cc(C(C)C(C)CCCCC)cc1OC2(C)C` (centres unmarked) [SP-1], the Duration result in series [1] (setting [8]), in series [1] (setting [9]), in series [1] (setting [10]) and in series [1] (setting [11]) was “+” each time. The Lethality entry in series [1] (setting [8]) is “-”; in series [1] (setting [9]), “NE”; in series [1] (setting [10]) it was “NE”; in series [1] (setting [11]), “NE”. Besides, the Onset result is listed as “+” in series [1] (setting [8]), “-” in series [1] (setting [9]), “-” in series [1] (setting [10]) and “-” in series [1] (setting [11]).
For the molecule `C#CCN1CCC2=C(C1)c1c(OC(=O)CCCN3CCOCC3)cc(C(C)C(C)CCCCC)cc1OC2(C)C.Cl` (centres unmarked) [SP-112, 5,5-Dimethyl-10-[4-(morpholino)butyryloxy]-8-(3-methyl-2-octyl)-2-(2-propynyl)-1,2,3,4-tetrahydro-5H-[1]-benzopyrano [3,4-d] pyridine hydrochloride], in series [1] (setting [12]), the Duration entry is reported as “+”, the Lethality result is reported as “NE” and the Onset result is listed as “-”.
For the molecule `C#CCN1CCC2=C(C1)c1c(OC(=O)CCCN3CCCCC3)cc(C(C)CCCc3ccc(F)cc3)cc1OC2(C)C` (centres unmarked) [SPA-109], in series [1] (setting [12]), the Duration entry is given as “+”, the Lethality result is “NE” and the Onset result is on record as “-”.
For `CCCCCc1cc(OC(=O)CCCN2CCOCC2)c2c(c1)OC(C)(C)C1CCC(C)=CC21` (centres unmarked) [SP-111] the same measures were “+”, “NE” and “-”.
Turning to `CC1CCC2=C(C1)c1c(OC(=O)CCCN3CCCCC3)cc(C(C)CCCc3ccc(F)cc3)cc1OC2(C)C` (centres unmarked) [Example 71], the solubility in water result in series [2] is recorded as “soluble in water”.
On to `CCCC(C)C1(CC)C(=O)NC(=S)NC1=O` (centres unmarked) [Pentothal, sodium thiopental], for which the ED50 in series [3] (Mus musculus, intravenous, mice, loss of righting reflex, read-out: Anesthetic ED50 (95% C.L.)) came out at 20 mg/kg. In series [3] (Remarks: irritating (pH 11)), this molecule had a pH of 11. In series [3] (intravenous, mice), the “Remarks: duration” value is given as “short duration”, the “Remarks: irritation” value is reported as “irritating”, the “Remarks: onset” value was “Immediate onset” and the “Therapeutic Index” value was ~ 4. For the same molecule, in series [4], the LD50 at 168 h worked out at 76 mg/kg.
Turning to `CCCCCC(C)C(C)c1cc(OC(=O)CCCN2CCCCC2)c2c(c1)OC(C)(C)C1=C2CCC1` (centres unmarked) [SP-102], in series [1] (setting [12]), the Duration result is “+”, the Lethality result is “NE” and the Onset result is reported as “+”.
Turning to `C#CCN1CCC2=C(C1)c1c(OC(=O)C(C)CCN3CCCCC3)cc(C(C)C(C)CCCCC)cc1OC2(C)C` (centres unmarked) [SP-178, 5,5-Dimethyl-10-[2-methyl-4-(piperidino)butyryloxy]-8-(3-methyl-2-octyl)-2-(2-propynyl)-1,2,3,4-tetrahydro-5H-[1]benzopyrano[3,4-d] pyridine dihydrochloride], in series [1] (setting [12]), the Duration entry is recorded as “+”, the Lethality result is given as “NE” and the Onset entry is “-”.
For the molecule `CCCCCC(C)C(C)c1cc(OC(=O)CCCN2CCCCC2)c2c(c1)OC(C)(C)C1=C2CCCS1` (centres unmarked) [SP-117], in series [1] (setting [12]), the Lethality result is “NE” and the Onset entry is given as “+”.
For `C#CCN1CCC2=C(C1)c1c(OC(=O)CCCN3CCCCC3)cc(C(C)C(C)CCCCC)cc1OC2(C)C.Cl` (centres unmarked) [SP-106, 5,5-Dimethyl-8-(3-methyl-2-octyl)-10-[4-(piperidino)butyryloxy]-2-(2-propynyl)-1,2,3,4-tetrahydro-5H-[1]benzopyrano[3,4-d]pyridine hydrochloride], the peak effect in series [5] (1 mg./kg. intravenously 0-30 minutes prior to Pentothal 10 mg./kg.) is 5 min. The “anesthesia (loss of righting reflex)” value in series [5] (1 mg./kg. intravenously 0-30 minutes prior to Pentothal 10 mg./kg. (non-anesthetic dose)) is “produced anesthesia”. Also, the sleep duration result in series [5] (1 and 5 mg./kg. intravenously 15 minutes prior to anesthetic dose (30 mg./kg.) of Pentothal) is listed as “significantly lengthened the sleep”. Besides, the “effect at longer pretreatment times” value in series [5] (60 to 120 minutes pretreatment, 1 mg./kg. intravenously, Pentothal 10 mg./kg.) is reported as “had no effect”. For the same molecule, in series [6], the Onset entry is on record as “reduction of onset”, the duration of anesthesia entry is “increased the duration of anesthesia” and the time to death entry was “increased”. In series [1] (setting [12]), the Duration result is listed as “+”, the Lethality result is recorded as “-” and the Onset result is “-”. For the same molecule, in series [7], the duration of anesthesia entry is listed as “significantly lengthened the duration of anesthesia”, the onset to sleep result is “signficantly shortened onset to sleep” and the time to death result was “had no effect or lengthened time to death”.
For `C#CCN1CCC2=C(C1)c1c(OC(=O)CCCN3CCCCC3C)cc(C(C)C(C)CCCCC)cc1OC2(C)C` (centres unmarked) [SP-159, 5,5-Dimethyl-10-[4-(2-methylpiperidino)butyryloxy]-8-(3-methyl-2-octyl)-2-(2-propynyl)-1,2,3,4-tetrahydro-5H-[1]benzopyrano [3,4-d] pyridine hydrochloride], in series [1] (setting [12]), the Duration entry is “+”, the Lethality result was “NE” and the Onset entry was “-”.
In the case of `C#CCN1CCC2=C(C1)c1c(OC(=O)C(C)CCN3CCCCC3C)cc(C(C)C(C)CCCCC)cc1OC2(C)C` (centres unmarked) [SP-204], in series [1] (setting [12]), the Duration entry is recorded as “+”, the Lethality result is “-” and the Onset result is reported as “-”.

A word on the ED50: it is the dose that gives a 50% effect, or the effect in half of the subjects. As usually defined, the LD50 is the dose expected to kill half of the subjects tested.
